From patent US11731977B2, “SGC stimulators” (Cyclerion Therapeutics, Inc., priority 2016, dated 2023) come the findings set out here.

The experiment concerns the target T1, sGC enzyme (Homo sapiens, UniProt Q02108+Q02153).
T1 construct: sGC enzyme activity values in HEK cells, determined by the GloSensor assay; host or cells: HEK293 cells stably expressing GloSensor 40F cGMP biosensor
T1 sequence (Q02153 1-619): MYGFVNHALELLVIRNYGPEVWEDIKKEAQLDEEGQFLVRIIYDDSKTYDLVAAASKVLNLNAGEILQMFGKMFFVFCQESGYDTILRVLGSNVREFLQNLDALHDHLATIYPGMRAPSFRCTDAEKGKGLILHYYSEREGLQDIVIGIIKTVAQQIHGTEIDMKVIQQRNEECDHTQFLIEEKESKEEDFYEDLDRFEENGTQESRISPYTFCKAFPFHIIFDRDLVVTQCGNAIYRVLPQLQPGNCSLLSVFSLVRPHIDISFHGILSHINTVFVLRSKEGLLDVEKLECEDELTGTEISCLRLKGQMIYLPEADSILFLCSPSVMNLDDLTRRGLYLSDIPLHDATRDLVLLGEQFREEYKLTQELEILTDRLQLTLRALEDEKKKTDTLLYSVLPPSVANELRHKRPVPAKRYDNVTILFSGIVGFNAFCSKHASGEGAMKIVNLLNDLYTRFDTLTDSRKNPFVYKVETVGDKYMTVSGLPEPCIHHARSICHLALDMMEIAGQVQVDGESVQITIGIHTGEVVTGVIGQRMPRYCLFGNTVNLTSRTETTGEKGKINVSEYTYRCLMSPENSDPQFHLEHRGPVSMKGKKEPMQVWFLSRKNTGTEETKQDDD
T1 sequence (Q02108 1-690): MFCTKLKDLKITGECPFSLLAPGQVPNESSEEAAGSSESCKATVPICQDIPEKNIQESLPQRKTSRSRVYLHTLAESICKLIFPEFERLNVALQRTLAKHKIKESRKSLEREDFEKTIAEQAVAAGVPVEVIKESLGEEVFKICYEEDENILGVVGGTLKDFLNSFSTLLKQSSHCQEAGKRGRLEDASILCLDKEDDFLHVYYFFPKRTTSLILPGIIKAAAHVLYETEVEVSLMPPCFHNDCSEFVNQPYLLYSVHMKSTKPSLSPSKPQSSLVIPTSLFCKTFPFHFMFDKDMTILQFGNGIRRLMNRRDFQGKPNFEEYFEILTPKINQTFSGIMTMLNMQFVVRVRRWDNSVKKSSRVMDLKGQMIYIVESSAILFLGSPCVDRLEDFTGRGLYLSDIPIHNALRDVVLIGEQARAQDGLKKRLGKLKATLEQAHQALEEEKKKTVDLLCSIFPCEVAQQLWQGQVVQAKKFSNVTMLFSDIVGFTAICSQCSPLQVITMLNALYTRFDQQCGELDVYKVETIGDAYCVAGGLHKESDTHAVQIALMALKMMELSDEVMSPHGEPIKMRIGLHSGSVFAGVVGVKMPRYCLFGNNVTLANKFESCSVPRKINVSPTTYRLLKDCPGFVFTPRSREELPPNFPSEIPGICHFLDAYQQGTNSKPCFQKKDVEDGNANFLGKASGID
Nature of the experiment: cGMP GloSensor cell-based assay, synergy with NO at varied DETA-NO (Example 2b). The note with it: for EC50: HEK293 GloSensor cells, read-out: EC50 (Absolute EC50). As for the experimental part:
HEK293 cells expressing GloSensor™ 40F cGMP (Part No: CS182801, Promega) were used to evaluate the synergy of the test compounds with NO. Multiple assays where run in which the concentrations of test compound also well as the concentration of Diethylenetriamine NONOate (DETA-NONOate) were varied to determine the synergy of the test compound with NO. Test compounds and Diethylenetriamine NONOate (DETA-NONOate or DETA-NO) were diluted to 3 mM (20×) in serum-free CO2 independent medium and serially diluted at 4× dilutions to create 5× dose curve from which 10 ul was added to the wells (x μM concentration for test compound solution and y μM concentration for DETA-NO solution; wherein x is one of the following final concentrations: 30000 nM, 7500 nM, 1875 nM, 468.8 nM, 117.2 nM, 29.29 nM, 7.320 nM, 1.830 nM, 0.460 nM, 0.114 nM, and 0.029 nM and y is one of the following final concentrations: 30 μM, 10 μM, 3.33 μM 1.11 μM, and 0 μM).
Following the analysis as described above, Table 2b summarizes results obtained for Compound I-1 with the various DETA-NO amount in this assay.

The structures appear in SMILES notation. Like-named read-outs stand apart in the source and are kept apart here. Bounds are passed on as bounds.

For `Fc1ccccc1Cc1nc(-c2nc(C(F)(F)F)n[nH]2)cn2ccnc12` [Compound I-1, 8-(2-fluorobenzyl)-6-(3-(trifluoromethyl)-1H-1,2,4-triazol-5-yl)imidazo[1,2-a]pyrazine], the half-maximal effective concentration (EC50) ([DETA-NO] 0 uM) was in the range of 100 to 1000 nM; the EC50 ([DETA-NO] 1.11 uM) is 100 to 1000 nM; the EC50 ([DETA-NO] 3.33 uM) lay within 100 to 1000 nM; the EC50 ([DETA-NO] 10 uM) was 100 to 1000 nM; the EC50 ([DETA-NO] 30 uM) was at most 100 nM. Besides, the “synergy with NO to stimulate sGC” value (varied DETA-NO concentrations) is on record as “synergizes with NO”.

In general, EC50 refers to the concentration giving half of the maximal effect.
